Results published in patent US20100029546A1, “preparation method of galactosyl-has magnetic nanoparticles containing adriamycin” (priority 2004, published 2010).

Key:
[1] = test system: HepG2 cell; assay: Transwell invasion in vitro; assay type: cell-based
Excerpt: The tumor cell's mobility and the invasion are close to each other. The tumor cell has the ability of amoeba type's movement, and it was confirmed by many people. Simultaneously, many overseas scholars reported that there is a direct ratio relation between the mobility and the invasion ability of the cancer cell. […] There is significant difference between any two groups. […] HSA-magnetic-adriamycin-nanoparticles group is different from galactosyl-HSA-adriamycin-nanoparticles group in it.

[2] = test system: hepatocelular cell; assay: Apoptosis, quadrilateral zone in drug toxicity experiment; assay type: cell-based
[3] = rabbit
[4] = Drug release in vitro, dynamic dialysis; assay type: physicochemical; details: for Releasing (%): physiological saline
Experimental: Drug releases in vitro. According to dynamic dialysis, taking physiological saline as medium, 4 ml of the solution would be taken at certain time, and the same volume of the medium would be added in. The absorbency was measured to get the solving efficiency according to the standard curve formula. At the same time, the drug releasing experiment of adriamycin standard substance was done in order to observe the control release of the dialysis bag.

[5] = test system: liver cancer; assay: Animal test of liver cancer therapy, hepatic artery injection; assay type: in vivo
Excerpt: The result could be found in animal test: the group having NS hepatic artery injection lived 12.7 days on average; the group having lib-adriamycin hepatic artery injection lived 18.7 days on average; HSA-NP hepatic artery injection lived 20.7 days on average; the group having Gal-HAS-NP treatment lived 39.4 days on average.
Meanwhile, the aspiration of magnetic nanoparicles produced a longer functional diameter, which caused embolism in tumor blood vessels and lack of blood and oxygen in tumor in order to improve the sensitivity and effect of chemotherapeutics. Without adding magnetic field, the distribution rate of ADM-GHMN in tumorous and normal livers was 2.74, which also had some anti-tumor effects.

Question: With COc1cccc2c1C(=O)c1c(O)c3c(c(O)c1C2=O)C[C@@](O)(C(=O)CO)C[C@@H]3O[C@H]1C[C@H](N)[C@H](O)[C@H](C)O1 [adriamycin] as the compound, how does the “inhibition of invasive power” value [1] read?
Answer: can inhibit invasive power of the HepG2 cell

Question: And the “characteristic quadrilateral zone present” value [2]?
Answer: characteristic quadrilateral zone

Question: What about the C l [3] of the same compound?
Answer: 0.4233 ± 0.3223 mg/m/(mg/l)

Question: And the T1/2β ([3]; elimination phase)?
Answer: 883.2164 ± 2198.4914 m

Question: And the A ([3]; in vivo)?
Answer: 0.1362 ± 0.0185 mg · l − 1

Question: And the “AUC0→∞” value ([3]; in vivo)?
Answer: 14.8163 ± 24.789 m · mg/l

Question: What about the B ([3]; in vivo) of the same compound?
Answer: 0.0109 ± 0.0028 mg · l − 1

Question: What about the Gamma ([3]; in vivo) of the same compound?
Answer: 0.5463 ± 0.1663 m − 1

Question: What about the T1/2α ([3]; in vivo) of the same compound?
Answer: 13.8169 ± 3.5845 m

Question: What about the V c ([3]; in vivo) of the same compound?
Answer: 18.6816 ± 2.3663 (mg)/(mg/l)

Question: What about the α ([3]; in vivo) of the same compound?
Answer: 0.0523 ± 0.0161 m − 1

Question: And the “Releasing (%)” value ([4]; 0.5 h)?
Answer: 78.21%

Question: What about the “Releasing (%)” value ([4]; 1 h) of the same compound?
Answer: 91.34%

Question: And the “Releasing (%)” value ([4]; 2 h)?
Answer: 100%

Question: What about the “release / releasing efficiency” value ([4]; time not stated (Tab 6)) of the same compound?
Answer: 91.34%

Question: And the average survival ([5]; hepatic artery injection)?
Answer: 18.7 days

Question: And the “tumor necrosis extent in pathological section” value ([5]; in vivo)?
Answer: no badly necrosis but most light or medium leveled necrosis
